Experimental data from US6756410B2, “Induction of LDL receptor expression by extracellular-signal regulated kinase, ERK-1/2” (priority 2000, dated 2004).
Entries after “also recorded” stand apart in the source; their conditions may differ.

Tests used:
[1] = tested on: human LDL receptor promoter; assay: LDL receptor promoter-luciferase reporter (construct A) in HepG2-ΔRaf-1:ER cells; assay type: cell-based; conditions: for transcriptional (activating) effect of ICI182,780 on the human LDL receptor promoter in presence of inhibitor: 1 μM ICI182,780, PD98059 50 μM, staurosporine 1 μM, curcumin 20 μM
Procedure: HepG2-ΔRaf-1:ER cells were cotransfected with LDL receptor promoter-luciferase reporter (plasmid A) and β-galactosidase-reporter. After 24 hours, cells were grown in a medium containing 0.2% serum for 12 h, followed by addition of 1 μM ICI182,780 for the last 24 h in the absence or presence of indicated inhibitor. […] Sterols (2 μg/ml 25-hydroxycholesterol and 10 μg/ml cholesterol) were added to examine sensitivity to sterols. After the treatment both luciferase and β-galactosidase activities were measured according to the method previously described (24). The results are presented as means ±S.E. and represent at least three individual experiments.
A human low density lipoprotein receptor promoter-luciferase construct A (24) was used to determine the response of the low density lipoprotein receptor promoter to activation of the p42/44^MAPK pathway. HepG2-ΔRaf-1:ER cells were transfected with 0.6 μg of reporter plasmid and 0.25 μg of SV-βGal plasmid by lipofectamine technique, as described previously (Mehta et al., 1996). Cells were washed after 12 h, and after another 12 h the cells were treated with 1 μM ICI182,780 for 36 h, and the controls were treated with ethanol. PBS-washed cells were harvested in 250 mM Tris-Cl, pH 7.5, and lysed in the lysis buffer. The luciferase activities of the cell lysates were measured according to the manufacture's recommendations (Promega). Luciferase assays were carried out in triplicate. In FIG. 6, the data are shown as means of three experiments and the fold induction represents the difference between the means of the samples with ICI182,780 and that of the control. Luciferase activity was normalized for β-galactosidase activity.
To study the role of serine/threonine protein kinases in the activation of the LDL receptor promoter by p42/44^MAPK, HepG2 cells were transiently transfected with construct A. Sixteen hours after transfection, the cells were treated for 1 h with the indicated inhibitor, and then with ICI182,780 in the continued presence of inhibitor.
Because the primary effect of p42/44^MAPK activation is exerted at the transcriptional levels, it was next determined whether ICI182,780 treatment modulated activity of the low density lipoprotein receptor promoter. A low density lipoprotein receptor promoter/luciferase reporter construct A (Mehta et al., 1996), containing promoter sequences from −273 to +35, was transfected into HepG2-ΔRaf-1:ER cells. Both sets of transfected cells were exposed to ICI182,780 for 36 h, after which luciferase activity was determined.

[2] = tested on: p42/44^MAPK; assay: p42/44MAPK phosphorylation, immunoblot with phospho-specific antibody in HepG2-ΔRaf-1:ER cells; assay type: cell-based, human
Procedure: HepG2 cells were treated with indicated doses of ICI182,780 for 4 hours. Phospho-specific p42/44^MAPK antibody was used to monitor p42/44^MAPK phosphorylation/activation, and phosphorylation-independent p42/44^MAPK antibody was used to measure total p42/44^MAPK protein.
(§1) Cells were scraped in phosphate-buffered saline (PBS) and centrifuged, and the pellet was resuspended in lysis buffer (50 mM Tris-Cl [pH 7.5], 150 mM NaCl, 10 mM MgCl2, 1 mM dithiothreitol, 10 mM NaF, 0.5 mM Na3VO4, 0.5% Nonidet P-40, 10 μg of aprotinin/ml, and 100 μg of phenylmethylsulfonyl fluoride per ml). Protein concentration was measured by the Bio-Rad protein assay. Protein (30 to 50 μg) was resolved by sodium dodecyl sulfate-polyacrylamide gel electrophoresis (SDS-PAGE) and transferred onto Immobilon P membranes (Millipore). The filter was blocked in 2.5% skim milk with 0.1% Tween 20 in PBS for 2 h followed by incubation with the specific antibody. The following antibodies were used: polyclonal rabbit antibodies against phosphorylation-independent p42/44^MAPK, phospho-specific-p42/44^MAPK, and phospho-specific or phosphorylation-independent Raf-1 kinase. Reactive proteins were detected with horseradish peroxidase-conjugated secondary antibodies and visualized with an ebb enhanced chemiluminescence detection kit (Amersham Pharmacia Biotech).

[3] = tested on: Raf-1 kinase; assay: Raf-1 kinase phosphorylation, immunoblot in HepG2-ΔRaf-1:ER cells; assay type: cell-based, human; conditions: 30 min pretreatment, then 1 μM ICI182,780
Procedure: Total cell extracts were subjected to immunoblotting using the phosphorylation-independent and phospho-specific Raf-1 kinase antibodies. The same blot was later probed with the phospho-specific p42/44^MAPK antibody.
as §1

[4] = tested on: LDL receptor; assay: LDL receptor mRNA expression, Northern blot in HepG2-ΔRaf-1:ER cells; assay type: cell-based, human
Procedure: Northern blotting was done under identical conditions to measure RNA levels of LDL receptor, SS, and actin genes.
Total RNA was analyzed by Northern blot for measuring LDL receptor mRNA levels.
LDL receptor and SS mRNA levels were determined by Northern blotting. Results shown are indicative of two separate experiments.
Cells either untreated or pretreated with different concentrations of sterols (1, 2 or 5 μg/ml 25-hydroxycholesterol and 10 μg/ml cholesterol) were induced with ICI182,780 (1 μM) for 4 h. Total RNA was subjected to Northern blotting to determine mRNA levels of LDL receptor and squalene synthase.
Total RNA was isolated by the TRIzol reagent (GIBCO-BRL), according to the manufacturer's protocol. RNA was stored under ethanol. Aliquots containing 20 μg RNA were electrophoresed through a 1%-agarose-formaldehyde gel and transferred to a nylon membrane (BioRad) followed by hybridization. Hybridization probes for LDL receptor, actin, and SS, labeled with ^32P, were prepared using the M13 universal primer. Hybridizations were performed at 45° C., and after final washing at 55° C. for 30 min, filters were exposed to Kodak x-ray film. The relative intensities of specific bands were determined densitometrically within the linear range of film on a model 300A laser densitometer (Molecular Dyanamics) using Image Quant software.

[5] = tested on: cyclin A; assay: Cyclin A protein expression, immunoblot; assay type: cell-based, human; conditions: 1 μM ICI182,780
Procedure: (§2) Cells were cultured in the absence or presence of 1 μM ICI182,780. Equal amounts of total protein (40 μg) were resolved by SDS-PAGE, transferred to Immobilon P membrane and probed with antibodies specific for cyclin A and p21^Cip.
as §1

[6] = tested on: HepG2-ΔRaf-1:ER cells; assay: Growth curves of HepG2-ΔRaf-1:ER cells (cell counting); assay type: cell-based, human; conditions: 1 μM ICI182,780
Procedure: (§3) Log-phase cells were seeded at 10^5 cells per 60 mm dish. After 36 h the medium was changed to medium containing either 1 μM ICI182,780 or no ICI182,780. At the indicated times, cells were trypsinized and counted.

[7] = tested on: HepG2-ΔRaf-1:ER cells; assay: DNA synthesis, [3H]thymidine incorporation; assay type: cell-based, human; conditions: ICI182,780 0 to 1 μM for 18 h or 1 μM over time
Procedure: Cells in a 24-well dishes were either treated with different ICI182,780 concentrations from 0 to 1 μM for 18 h (top panel) or with 1 μM of ICI182,780 for time periods as indicated in the abscissa of the graph (bottom panel). DNA synthesis was measured by the incorporation of [^3H]thymidine during the final 4 h. Each point represents the mean of three determinations and is representative of at least two independent experiments.
Proliferation was measured with the [^3H]thymidine uptake assay (Amersham), with [^3H]thymidine (1.0 μCi/ml) present in the medium for 4 h prior to harvesting.

[8] = tested on: HepG2-ΔRaf-1:ER cells; assay: Cell cycle analysis by propidium iodide FACS; assay type: cell-based, human; conditions: 1 μM ICI182,780, 18 h and 36 h
Procedure: The percentage of cells in the G1, S and G2 phases of the cell cycle is given for the control and ICI182,780 treated cells.
Cells (5×10^5) were seeded on 100 mm dishes and 2 days later the medium was replaced with medium containing 1 μM ICI182,780. After 18 h and 36 h, attached cells were trypsinized, centrifuged, washed in phosphate-buffered saline, resuspended in 1 ml phosphate-buffered saline, fixed in 1 ml of cold ethanol for overnight at 4° C., centrifuged again, washed once with saline, and resuspended in 0.1% bovine serum albumin containing 50 μg/ml ribonuclease and 50 μg/ml propidium iodide (Sigma), and then analysed in a fluoroscence-activated cell sorter (FACSORT, Becton Dickinson). Data were analysed using the Cellfit program.

[9] = tested on: HepG2 cells; assay: Growth curves of HepG2 cells (cell counting); assay type: cell-based, human; conditions: 1 μM ICI182,780
Procedure: as §3

[10] = tested on: HepG2-ΔRaf-1:ER cells; assay: Light microscopic examination of cell morphology; assay type: cell-based; conditions: 1 μM ICI182,780, 24 h
Procedure: Cells treated with 1 μM of the ICI182,780 for 24 h were examined by optical microscopy. […] Representative photomicrographs of HepG2-ΔRaf-1:ER cells either untreated or treated with ICI182,780 were taken at low and high cell density regions of the cultured plate by using microscope.
The phenotype seen in ICI182,780-treated cells may resemble the situation of terminal differentiation, in which cells (for example, neurons) show differentiation in the absence of DNA replication.

[11] = tested on: HepG2-ΔRaf-1:ER cells; assay: Colony staining (colony formation); assay type: cell-based, human; conditions: maintained with ICI182,780; results not shown
Procedure: Cells were seeded at a density of 10,000 cells per 60 mm dish and maintained with or without ICI182,780 for varying periods. Colonies were stained by addition of 0.5 ml methylene blue solution for 30 min followed by washing.

[12] = tested on: p21^Cip1; assay: p21Cip protein expression, immunoblot; assay type: cell-based, human
Procedure: as §2, §1

[13] = 30 min pretreatment, then 1 μM ICI182,780
[14] = clone B, ICI182,780 0 to 1 μM, 4 hours

CN[C@@H]1C[C@H]2O[C@@](C)([C@@H]1OC)n1c3ccccc3c3c4c(c5c6ccccc6n2c5c31)C(=O)NC4 [staurosporine] was tested, and the “transcriptional (activating) effect of ICI182,780 on the human LDL receptor promoter in presence of inhibitor” value (shortened to “transcriptional … of inhibitor”) [1] was “suppressed”, the “ICI182,780-induced p42/44MAPK phosphorylation after staurosporine pretreatment” value [2, 13] was “inhibition of phosphorylation” and the “Raf-1 kinase phosphorylation after staurosporine pretreatment” value [3] was “inhibition of phosphorylation”. For the same compound, the “ICI182,780-induced LDL receptor expression after staurosporine pretreatment” value [4, 13] was “loss of LDL receptor induction”.

In the case of COc1cccc(-c2cc(=O)c3ccccc3o2)c1N [PD98059, 2-(2′-amino-3′-methoxyphenyl)-oxanaphthalene-4-one], the “transcriptional … of inhibitor” value [1] is reported as “suppressed”, the “p42/44MAPK phosphorylation and activation after PD98059” value ([2]; 20 μM PD98059 for 30 min before ΔRaf-1:ER activation, data not shown) is reported as “inhibited phosphorylation and activation” and the “p42/44MAPK induced LDL receptor expression after PD98059” value ([4]; PD98059 pretreatment 30 min, then 1 μM ICI182,780) is reported as “significantly inhibited”.

In the case of COc1cc(C=CC(=O)CC(=O)C=Cc2ccc(O)c(OC)c2)ccc1O [curcumin, 1,7-bis [4-hydroxy-3-methoxyphenyl]-1,6-heptadiene-3,5-dione], the “transcriptional … of inhibitor” value [1] is reported as “completely suppressed”, the “ICI182,780-dependent p42/44MAPK activation in presence of curcumin” value ([2]; curcumin before 1 μM ICI182,780) is reported as “without affecting” and the “increase in LDL receptor expression caused by ICI182,780 in presence of curcumin” value ([4]; 60 μM curcumin, endogenous gene) is reported as “totally suppressed”. The “time of treatment at which the blocking effect was complete” value ([4]; curcumin, kinetic studies) was 4 to 6 h.

With C[C@]12CC[C@@H]3c4ccc(O)cc4C[C@@H](CCCCCCCCC[S+]([O-])CCCC(F)(F)C(F)(F)F)[C@H]3[C@@H]1CC[C@@H]2O (some centres unmarked) [ICI182,780] the “cyclin A protein expression” value [5] was “strong down-regulation”, the “lowest concentration at which promoter activation was detected” value ([1]; construct A) was 0.5 µM and the “increase of luciferase expression driven by the LDL receptor promoter” value ([1]; construct A (-273 to +35), 1 μM ICI182,780 for 36 h, normalized for β-galactosidase) was 4 to 6 fold. For the same compound, the “luciferase activity, promoterless luciferase vector” value ([1]; transfected cells containing the promoterless luciferase vector, ICI182,780 treatment) was “virtually no change in luciferase activity”, the “time at which p42/44MAPK phosphorylation was clearly detected” value ([2]; 1 μM ICI182,780, 1 to 16 h) was 1 h and the “time of maximal p42/44MAPK phosphorylation response” value ([2]; 1 μM ICI182,780, 1 to 16 h) was 2 h. For the same compound, the “increase in p42/44MAPK phosphorylation” value [2, 14] was “dependent on ICI182,780 concentration”, the “cell growth of HepG2-ΔRaf-1:ER cells” value [6] was “arrested the growth” and the “DNA synthesis ([3H]thymidine incorporation)” value [7] was “inhibition of DNA synthesis”. The cell cycle distribution [8] was “modest increase in the fraction of cells found in the G2/M phase with a concomitant decrease in S phase”, the “cell growth of HepG2 cells” value [9] was “no growth arrest” and the “morphological appearance of treated cells” value [10] was “larger with neuronal like structures (i.e. filopodia), and less refractile than untreated cells”. For the same compound, the “signs of cell stress or death” value [10] was “no indication that ICI-treated cells were under stress or dying; also recorded: did not exhibit membrane blebbing and/or increase in the number of rounded and/or detached cells”, the “time of maximal induction of LDL receptor expression” value ([4]; 1 μM ICI182,780, 1 to 16 h) was 3 to 4 h and the “increase in LDL receptor expression” value [4, 14] was “dependent on ICI182,780 concentration”. For the same compound, the “ability to form colonies” value [11] was “reduced their ability to form colonies”, the “duration of sustained high p21Cip1 levels” value ([12]; 1 μM ICI182,780) was “at least 24 h” and the p21Cip1 expression ([12]; 1 μM ICI182,780, between 30 and 120 min of treatment) was “strong increase”.
